In publication PMC11329928, “Design, synthesis and structure-activity relationship (SAR) studies of an unusual class of non-cationic fatty amine-tripeptide conjugates as novel synthetic antimicrobial agents” (Frontiers in Pharmacology, 2024):
Structures can show the parent of a compound that is named as a salt.

Assays:
[1] = tested on: S. pneumoniae D39; assay: Viability after challenge at mid-exponential (T2) or early stationary (T3) phase; assay type: cell-based, Streptococcus pneumoniae; details: S. pneumoniae D39, 50 µM, C+Y, 37°C
Description: The effect of DICAMs at different phases of culture growth was also investigated. DICAMs (50 μM) were added to cultures in the early exponential phase (OD550 ≈ 0.15; T1), late exponential phase (OD550 ≈ 0.3–0.4; T2), or near the stationary phase of growth (OD550 ≈ 0.5–0.7; T3) and the evolution of OD values was followed at 37°C for at least 2 h. By default, the variation in cell viability was also determined. Negative and positive controls were run in parallel.

[2] = tested on: S. pyogenes T membrane; assay: Membrane permeation, SYTOX Green; assay type: cell-based, Streptococcus pyogenes
Description: Permeation and depolarization of S. pyogenes ^T membrane by DICAMs were assayed with the fluorescent probes SYTOX Green and DiSC3(5), respectively, in a Varioskan Flash microplate reader (Thermo Scientific; Spain) using FluoroNunc 96-well plates (Thermo Scientific; Spain). For permeation assays, cells were grown to an OD550 ≈ 0.3, washed once with PBS pH 7.2 (3,800 × g, 7 min, room temperature), and adjusted to a final OD550 ≈ 0.4 (∼10^8 CFU/mL) with the same buffer before mixing in the dark with SYTOX Green (5 µM final concentration). One hundred µL of this suspension was dispensed per plate well and the signal stabilization was monitored for 15 min (λex = 485 nm; λem = 520 nm). Then, 100 µL of two-fold serially diluted lipopeptide samples was added and changes in fluorescence intensity were registered for 60 min at 37°C. SYTOX Green (900 Da) binds to intracellular DNA when the cell membrane is damaged, thereby increasing fluorescence intensity ([Roth et al., 1997]). Positive controls (100% membrane permeabilization) were carried out by adding Titron X-100 (0.01% final concentration) to untreated bacterial samples ([Rathinakumar et al., 2009]). For membrane depolarization assays, 180 µL of an OD550 ≈ 0.2 culture (BHI; ≈ 10^7 CFU/mL) supplemented with DiSC3(5) (1 µM final concentration) was distributed per well, and signal stabilization was registered for 30 min (λex = 622 nm; λem = 670 nm) ([Te Winkel et al., 2016]). Subsequently, 20 µL of a two-fold serial dilution of lipopeptide in culture medium was added, and fluorescence intensity was recorded for 60 min at 37°C. Partition of DiSC3(5) to the surface of polarized cells decreases the probe fluorescence, and its release, caused by membrane depolarization, results in an increase in fluorescence. […] The background signal of controls with bacterial cells without the fluorescent probe, as well as the dye fluorescence in the presence of the tested compounds without bacteria, were also registered. No change in the fluorescence intensity of the probes occurred upon DICAM addition in the absence of bacterial cells.

Structure (SMILES) | Death, addition at T3, approximately 3 h [1] [%] | Decrease of viability, addition at T3, approximately 3 h [1] | Decrease of viability, addition at T2, 30 min ([1]; 30 min incubation) | Decrease of viability, addition at T2, 3 h ([1]; 3 h incubation) [log units] | Lag before steady increase in SYTOX Green fluorescence ([2]; S. pyogenes T in PBS pH 7.2, SYTOX Green 5 µM, 37°C, dose-dependent lag) | Time to plateau of SYTOX green influx (incomplete influx) ([2]; S. pyogenes T, below 12.5 µM compound)
CCCCCCCCCCCCCCCCCCNC(=O)[C@H](CCC(=O)O)NC(=O)[C@H]1CCCN1C(=O)[C@H](C)N [DICAM 4, Ala- Pro -Glu-NH-C18H37 ·HCl] | ≥ 98 | ≈ 1.7 log units | ≈ 3 log units | ~5 | – | –
CCCCCCCCCCCCCCCCCCNC(=O)[C@H](CCC(=O)O)NC(=O)[C@H]1CCCN1C(=O)[C@H](C)NC(=O)OCc1ccccc1 [DICAM 3, Cbz-Ala- Pro -Glu-NH-C18H37] | – | – | – | – | more than 7 min | around 40 min
